ChEMBL document CHEMBL5303304, “EUbOPEN Chemogenomics Library - IncuCyte” (2023)

Tests used:
Format in all cases: toxicity, cell-based
[1] = tested on: HEK-293T; assay: Incucyte cell viability with HEK293T; conditions: human, 10 µM, compound concentration 10 uM
[2] = tested on: Fibroblast; assay: Incucyte cell viability with human fibroblast; conditions: 10 µM, compound concentration 10 uM
[3] = tested on: U2OS; assay: Incucyte cell viability with U2OS; conditions: human, 10 µM, compound concentration 10 uM
Further: unitless GR value; below 1 slowed growth and below 0 cell loss.

N#CN1CC[C@@H](C(=O)Nc2nc3c(s2)CN(C(=O)CN=[N+]=[N-])CC3)C1 [JYQ88]
Growth Rate ([1]; 0 h, replicate number 1): 0.97
Growth Rate ([1]; 6 h, replicate number 1): 0.69
Growth Rate ([1]; 6 h, replicate number 2): 0.71
Growth Rate ([1]; 12 h, replicate number 1): 0.77
Growth Rate ([1]; 12 h, replicate number 2): 0.7
Growth Rate ([1]; 18 h, replicate number 1): 1
Growth Rate ([1]; 18 h, replicate number 2): 0.77
Growth Rate ([1]; 24 h, replicate number 1): 0.96
Growth Rate ([1]; 24 h, replicate number 2): 0.85
Growth Rate ([2]; 0 h, replicate number 1): -1
Growth Rate ([2]; 6 h, replicate number 2): 0.78
Growth Rate ([2]; 12 h, replicate number 1): 0.78
Growth Rate ([2]; 12 h, replicate number 2): 0.49
Growth Rate ([2]; 18 h, replicate number 2): 0.75
Growth Rate ([2]; 24 h, replicate number 1): 1
Growth Rate ([2]; 24 h, replicate number 2): 0.77
Growth Rate ([3]; 0 h, replicate number 1): -1
Growth Rate ([3]; 12 h, replicate number 1): 0.95

CCCCCCCN(CCc1ccc(SC(C)(C)C(=O)O)cc1)C(=O)Nc1ccc(F)cc1F [GSK-9578]
Growth Rate ([1]; 0 h, replicate number 1): -0.27
Growth Rate ([1]; 0 h, replicate number 2): -0.91
Growth Rate ([1]; 6 h, replicate number 2): 0.66
Growth Rate ([1]; 12 h, replicate number 2): 0.73
Growth Rate ([1]; 18 h, replicate number 2): 0.5
Growth Rate ([1]; 24 h, replicate number 2): 0.55
Growth Rate ([2]; 0 h, replicate number 1): 0.58
Growth Rate ([2]; 6 h, replicate number 1): 0.88
Growth Rate ([2]; 6 h, replicate number 2): 0.55
Growth Rate ([2]; 12 h, replicate number 1): 0.69
Growth Rate ([2]; 12 h, replicate number 2): 0.91
Growth Rate ([2]; 18 h, replicate number 1): 0.7
Growth Rate ([2]; 24 h, replicate number 1): 0.88
Growth Rate ([3]; 6 h, replicate number 1): 0
Growth Rate ([3]; 12 h, replicate number 1): 0.86

CC1(C)Oc2ncnc(N)c2N=C1c1ccc([C@H]2CC[C@H](CC(=O)O)CC2)cc1
Growth Rate ([1]; 0 h, replicate number 2): -0.22
Growth Rate ([1]; 6 h, replicate number 1): 0.77
Growth Rate ([1]; 6 h, replicate number 2): 0.36
Growth Rate ([1]; 18 h, replicate number 1): 0.89
Growth Rate ([1]; 24 h, replicate number 1): 0.94
Growth Rate ([1]; 24 h, replicate number 2): 0.99
Growth Rate ([2]; 0 h, replicate number 1): -0.99
Growth Rate ([2]; 0 h, replicate number 2): -0.9
Growth Rate ([2]; 6 h, replicate number 1): 0.56
Growth Rate ([2]; 12 h, replicate number 1): 0.81
Growth Rate ([2]; 24 h, replicate number 2): 0.97
Growth Rate ([3]; 0 h, replicate number 1): 0.58
Growth Rate ([3]; 0 h, replicate number 2): -0.4
Growth Rate ([3]; 6 h, replicate number 1): 0.57
Growth Rate ([3]; 6 h, replicate number 2): 0.92
Growth Rate ([3]; 12 h, replicate number 2): 0.89
Growth Rate ([3]; 18 h, replicate number 1): 0.85
Growth Rate ([3]; 24 h, replicate number 1): 0.96

CCc1ccccc1C(=O)Nc1n[nH]c2c(C)c(F)c(C3C(C#N)=C(C)N(C)C(C)=C3C#N)cc12 [BAY-3827]
Growth Rate ([1]; 0 h, replicate number 1): 0.25
Growth Rate ([1]; 0 h, replicate number 2): -0.99
Growth Rate ([1]; 6 h, replicate number 2): 0.11
Growth Rate ([1]; 12 h, replicate number 2): 0.34
Growth Rate ([1]; 18 h, replicate number 1): 0.99
Growth Rate ([1]; 18 h, replicate number 2): 0.66
Growth Rate ([1]; 24 h, replicate number 2): 0.71
Growth Rate ([2]; 0 h, replicate number 1): 0.47
Growth Rate ([2]; 0 h, replicate number 2): -0.1
Growth Rate ([3]; 6 h, replicate number 2): 0.51
Growth Rate ([3]; 12 h, replicate number 1): 0.96
Growth Rate ([3]; 12 h, replicate number 2): 0.66
Growth Rate ([3]; 18 h, replicate number 1): 0.9
Growth Rate ([3]; 18 h, replicate number 2): 0.62
Growth Rate ([3]; 24 h, replicate number 1): 0.9
Growth Rate ([3]; 24 h, replicate number 2): 0.57

CNC(=O)c1c(F)cccc1Nc1nc(Nc2cc3c(cc2OC)CCN3C(=O)CN(C)C)nc2[nH]ccc12
Growth Rate ([1]; 0 h, replicate number 1): -1
Growth Rate ([1]; 0 h, replicate number 2): 0.35
Growth Rate ([1]; 12 h, replicate number 2): 0.75
Growth Rate ([1]; 18 h, replicate number 2): -0.03
Growth Rate ([1]; 24 h, replicate number 2): -0.14
Growth Rate ([2]; 0 h, replicate number 1): -0.92
Growth Rate ([2]; 6 h, replicate number 1): 0.23
Growth Rate ([2]; 6 h, replicate number 2): -0.71
Growth Rate ([2]; 12 h, replicate number 1): 0.04
Growth Rate ([2]; 12 h, replicate number 2): -0.65
Growth Rate ([2]; 18 h, replicate number 1): -0.23
Growth Rate ([2]; 18 h, replicate number 2): -0.62
Growth Rate ([2]; 24 h, replicate number 1): -0.23
Growth Rate ([2]; 24 h, replicate number 2): -0.6
Growth Rate ([3]; 0 h, replicate number 1): -0.99
Growth Rate ([3]; 0 h, replicate number 2): -1
Growth Rate ([3]; 12 h, replicate number 1): 0.02
Growth Rate ([3]; 12 h, replicate number 2): 0.29
Growth Rate ([3]; 18 h, replicate number 1): -0.42
Growth Rate ([3]; 18 h, replicate number 2): -0.11
Growth Rate ([3]; 24 h, replicate number 1): -0.45
Growth Rate ([3]; 24 h, replicate number 2): -0.14

Cc1cccc(CC(=O)N2CCc3c2ccc(-c2cn(C)c4ncnc(N)c24)c3F)n1
Growth Rate ([1]; 6 h, replicate number 1): 0.02
Growth Rate ([1]; 6 h, replicate number 2): 0.26
Growth Rate ([1]; 12 h, replicate number 1): 0.24
Growth Rate ([1]; 12 h, replicate number 2): 0.53
Growth Rate ([1]; 18 h, replicate number 1): 0.4
Growth Rate ([1]; 18 h, replicate number 2): 0.55
Growth Rate ([1]; 24 h, replicate number 1): 0.46
Growth Rate ([1]; 24 h, replicate number 2): 0.57
Growth Rate ([2]; 6 h, replicate number 1): 0.64
Growth Rate ([2]; 6 h, replicate number 2): 0.98
Growth Rate ([2]; 12 h, replicate number 1): 0.46
Growth Rate ([2]; 12 h, replicate number 2): 0.94
Growth Rate ([2]; 18 h, replicate number 1): 0.46
Growth Rate ([2]; 18 h, replicate number 2): 0.69
Growth Rate ([2]; 24 h, replicate number 1): 0.52
Growth Rate ([2]; 24 h, replicate number 2): 0.58
Growth Rate ([3]; 6 h, replicate number 1): -0.61
Growth Rate ([3]; 12 h, replicate number 1): 0.43
Growth Rate ([3]; 18 h, replicate number 1): 0.31
Growth Rate ([3]; 18 h, replicate number 2): 0.97
Growth Rate ([3]; 24 h, replicate number 1): 0.59
Growth Rate ([3]; 24 h, replicate number 2): 0.71

COc1cc(-c2cc3ncccc3c(OC[C@H]3CNC(=O)C3)n2)cc(OC)c1OC1CCOCC1.O=C(O)C(F)(F)F
Growth Rate ([1]; 0 h, replicate number 2): 0.5
Growth Rate ([1]; 6 h, replicate number 1): 0.2
Growth Rate ([1]; 6 h, replicate number 2): -0.14
Growth Rate ([1]; 12 h, replicate number 1): 0.17
Growth Rate ([1]; 12 h, replicate number 2): 0.16
Growth Rate ([1]; 18 h, replicate number 1): 0.25
Growth Rate ([1]; 18 h, replicate number 2): 0.34
Growth Rate ([1]; 24 h, replicate number 1): 0.33
Growth Rate ([1]; 24 h, replicate number 2): 0.49
Growth Rate ([2]; 0 h, replicate number 1): 0.4
Growth Rate ([2]; 6 h, replicate number 1): 0.72
Growth Rate ([2]; 6 h, replicate number 2): 0.67
Growth Rate ([2]; 12 h, replicate number 2): 0.78
Growth Rate ([2]; 18 h, replicate number 1): 1
Growth Rate ([2]; 18 h, replicate number 2): 0.92
Growth Rate ([2]; 24 h, replicate number 2): 0.94
Growth Rate ([3]; 0 h, replicate number 1): -0.63
Growth Rate ([3]; 6 h, replicate number 2): 0.88
Growth Rate ([3]; 12 h, replicate number 1): 0.72
Growth Rate ([3]; 12 h, replicate number 2): 0.93
Growth Rate ([3]; 18 h, replicate number 1): 0.76
Growth Rate ([3]; 18 h, replicate number 2): 0.85
Growth Rate ([3]; 24 h, replicate number 1): 0.68
Growth Rate ([3]; 24 h, replicate number 2): 0.75

Cc1nn(-c2nc3ccc(Cl)c(Cl)c3[nH]2)c(O)c1C1OC(=O)c2ccccc21 (stereo unspecified)
Growth Rate ([1]; 0 h, replicate number 1): 0.09
Growth Rate ([2]; 0 h, replicate number 1): -1
Growth Rate ([2]; 0 h, replicate number 2): -0.86
Growth Rate ([2]; 6 h, replicate number 1): 0.95
Growth Rate ([2]; 24 h, replicate number 1): 0.83
Growth Rate ([3]; 0 h, replicate number 1): 0.81
Growth Rate ([3]; 6 h, replicate number 1): 0.82

CN(C)C(=O)Cn1cc(-c2nc([C@@](C)(c3ccc(-c4cnc(N)nc4)cc3)C3CC3)no2)cn1 [BI 665915]
Growth Rate ([1]; 0 h, replicate number 1): 0.53
Growth Rate ([1]; 6 h, replicate number 1): 0.47
Growth Rate ([1]; 18 h, replicate number 1): 0.93
Growth Rate ([1]; 18 h, replicate number 2): 0.9
Growth Rate ([1]; 24 h, replicate number 1): 0.96
Growth Rate ([2]; 0 h, replicate number 1): -1
Growth Rate ([2]; 0 h, replicate number 2): -0.12
Growth Rate ([2]; 6 h, replicate number 1): 0.2
Growth Rate ([2]; 12 h, replicate number 1): 0.51
Growth Rate ([2]; 18 h, replicate number 1): 0.71
Growth Rate ([2]; 18 h, replicate number 2): 0.97
Growth Rate ([2]; 24 h, replicate number 1): 0.6
Growth Rate ([3]; 0 h, replicate number 2): 0.28
Growth Rate ([3]; 6 h, replicate number 1): 0.55
Growth Rate ([3]; 6 h, replicate number 2): 0.71
Growth Rate ([3]; 12 h, replicate number 1): 0.68
Growth Rate ([3]; 12 h, replicate number 2): 0.87
Growth Rate ([3]; 18 h, replicate number 2): 0.99
Growth Rate ([3]; 24 h, replicate number 1): 0.95
Growth Rate ([3]; 24 h, replicate number 2): 0.88

CCc1cc2c(cc1-c1cccc(S(=O)(=O)F)c1)C(C)(C)c1[nH]c3cc(C#N)ccc3c1C2=O
Growth Rate ([1]; 0 h, replicate number 1): 0.33
Growth Rate ([1]; 0 h, replicate number 2): 0.37
Growth Rate ([1]; 6 h, replicate number 1): -0.16
Growth Rate ([1]; 6 h, replicate number 2): -0.05
Growth Rate ([1]; 12 h, replicate number 1): 0.48
Growth Rate ([1]; 12 h, replicate number 2): 0.78
Growth Rate ([1]; 18 h, replicate number 1): 0.83
Growth Rate ([1]; 18 h, replicate number 2): 0.95
Growth Rate ([1]; 24 h, replicate number 1): 0.69
Growth Rate ([2]; 0 h, replicate number 1): -0.25
Growth Rate ([2]; 6 h, replicate number 2): 0.75
Growth Rate ([2]; 12 h, replicate number 1): -0.96
Growth Rate ([2]; 18 h, replicate number 1): -0.55
Growth Rate ([2]; 18 h, replicate number 2): 0.89
Growth Rate ([2]; 24 h, replicate number 1): 0.61
Growth Rate ([2]; 24 h, replicate number 2): 0.9
Growth Rate ([3]; 0 h, replicate number 1): -1
Growth Rate ([3]; 0 h, replicate number 2): -0.59
Growth Rate ([3]; 6 h, replicate number 1): 0.58
Growth Rate ([3]; 12 h, replicate number 1): 0.52
Growth Rate ([3]; 12 h, replicate number 2): 0.66
Growth Rate ([3]; 18 h, replicate number 1): 0.76
Growth Rate ([3]; 24 h, replicate number 1): 0.66
Growth Rate ([3]; 24 h, replicate number 2): 0.77
